# Laboratory results published in EP2646421B1, “7-NITRO-5-PHENYL-1-(PYRROLIDIN-1-YLMETHYL)-1H-BENZO[E][1,4]DIAZEPIN-2(3H)-ONE AND OTHER BENZODIAZEPINE DERIVATIVES” (Pignataro, Giuseppe, priority 2010, dated 2012).
# Legend:
# Format in all cases: cell-based
# NCX1 = molecular target: T1, NCX1 (Canis lupus familiaris, UniProt P23685); assay: Fura-2 AM single-cell microfluorimetry, BHK-NCX1 cells; conditions: 10 nM (Fig. 2)
# T1 construct: expressed in transfected cells
# Procedure: (§1) The activity of NCX was established by means of three different subclones of baby hamsted kidney (BHK) cells that were stably transfected with one of each NCX isoforms, named BHK-NCX1, BHK-NCX2 and BHK-NCX3. These cell lines were grown on plastic dishes in a mix of DMEM and Ham's F12 media (1:1) (Gibco, Invitrogen, MI, Italy) supplemented with 5% fetal bovine serum, 100 U/ml penicillin, and 100 µg/ml streptomycin (Sigma, St. Louis, Missouri, USA). Cells were cultured in a humidified 5% CO2 atmosphere and at the temperature of 37°C.
# (§2) NCX activity has been measured considering the variation of intracellular concentrations of Ca^2+ ions ([Ca^2+]i) due to its activation by means of single-cell microfluorimetry. […] In both cases, this probe will produce an emission at 510 nm; the ratio between the two emission relative to 340 and 380 excitation allow to quantify [Ca^2+]i in the time considering the calibration curve previously performed. […]
# (§3) Briefly, BHK cells wild type and/or BHK trasnsfected with NCX mutants, grown on glass coverslips, were loaded with Fura-2 acetoxymethyl ester (Fura-2AM) (10 µM) for 30 minutes at 37°C in normal Krebs solution containing the following (in mM): 5.5 KCI, 160 NaCl, 1.2 MgCl2, 1.5 CaCl2, 10 glucose, and 10 Hepes-NaOH, pH 7.4. […] Fura-2 fluorescence intensity was measured every 3 seconds. […]
# NCX2 = molecular target: T2, NCX2 (Rattus norvegicus, UniProt P48768); assay: Fura-2 AM single-cell microfluorimetry, BHK-NCX2 cells; conditions: 10 nM (Fig. 2)
# T2 construct: expressed in transfected cells
# T2 sequence (P48768 21-921): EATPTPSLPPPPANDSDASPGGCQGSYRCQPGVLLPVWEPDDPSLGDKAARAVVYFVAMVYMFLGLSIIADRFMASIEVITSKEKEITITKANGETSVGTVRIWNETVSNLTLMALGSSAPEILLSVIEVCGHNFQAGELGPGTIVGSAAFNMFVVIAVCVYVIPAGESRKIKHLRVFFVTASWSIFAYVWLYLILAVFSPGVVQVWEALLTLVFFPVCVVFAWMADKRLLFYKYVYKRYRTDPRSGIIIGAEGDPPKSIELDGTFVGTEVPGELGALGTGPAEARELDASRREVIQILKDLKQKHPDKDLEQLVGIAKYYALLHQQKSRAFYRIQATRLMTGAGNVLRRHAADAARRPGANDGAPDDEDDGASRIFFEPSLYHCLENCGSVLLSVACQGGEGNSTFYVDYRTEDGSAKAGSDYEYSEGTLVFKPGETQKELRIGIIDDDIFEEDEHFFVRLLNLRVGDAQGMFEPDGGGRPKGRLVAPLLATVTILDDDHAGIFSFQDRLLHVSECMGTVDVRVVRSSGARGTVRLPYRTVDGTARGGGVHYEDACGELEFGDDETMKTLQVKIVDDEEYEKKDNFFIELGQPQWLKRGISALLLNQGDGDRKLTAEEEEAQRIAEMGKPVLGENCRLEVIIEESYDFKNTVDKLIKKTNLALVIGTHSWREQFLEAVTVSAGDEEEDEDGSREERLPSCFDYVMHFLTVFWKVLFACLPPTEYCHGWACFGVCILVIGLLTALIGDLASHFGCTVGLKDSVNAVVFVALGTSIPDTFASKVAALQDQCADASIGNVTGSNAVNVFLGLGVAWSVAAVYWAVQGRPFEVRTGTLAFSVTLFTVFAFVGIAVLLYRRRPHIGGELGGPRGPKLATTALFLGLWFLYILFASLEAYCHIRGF
# Procedure: as §1, §2, §3
# NCX3 = molecular target: T3, NCX3 (Rattus norvegicus, UniProt P70549); assay: Fura-2 AM single-cell microfluorimetry, BHK-NCX3 cells; conditions: 10 nM (Fig. 2)
# T3 construct: expressed in transfected cells
# T3 sequence (P70549 31-927): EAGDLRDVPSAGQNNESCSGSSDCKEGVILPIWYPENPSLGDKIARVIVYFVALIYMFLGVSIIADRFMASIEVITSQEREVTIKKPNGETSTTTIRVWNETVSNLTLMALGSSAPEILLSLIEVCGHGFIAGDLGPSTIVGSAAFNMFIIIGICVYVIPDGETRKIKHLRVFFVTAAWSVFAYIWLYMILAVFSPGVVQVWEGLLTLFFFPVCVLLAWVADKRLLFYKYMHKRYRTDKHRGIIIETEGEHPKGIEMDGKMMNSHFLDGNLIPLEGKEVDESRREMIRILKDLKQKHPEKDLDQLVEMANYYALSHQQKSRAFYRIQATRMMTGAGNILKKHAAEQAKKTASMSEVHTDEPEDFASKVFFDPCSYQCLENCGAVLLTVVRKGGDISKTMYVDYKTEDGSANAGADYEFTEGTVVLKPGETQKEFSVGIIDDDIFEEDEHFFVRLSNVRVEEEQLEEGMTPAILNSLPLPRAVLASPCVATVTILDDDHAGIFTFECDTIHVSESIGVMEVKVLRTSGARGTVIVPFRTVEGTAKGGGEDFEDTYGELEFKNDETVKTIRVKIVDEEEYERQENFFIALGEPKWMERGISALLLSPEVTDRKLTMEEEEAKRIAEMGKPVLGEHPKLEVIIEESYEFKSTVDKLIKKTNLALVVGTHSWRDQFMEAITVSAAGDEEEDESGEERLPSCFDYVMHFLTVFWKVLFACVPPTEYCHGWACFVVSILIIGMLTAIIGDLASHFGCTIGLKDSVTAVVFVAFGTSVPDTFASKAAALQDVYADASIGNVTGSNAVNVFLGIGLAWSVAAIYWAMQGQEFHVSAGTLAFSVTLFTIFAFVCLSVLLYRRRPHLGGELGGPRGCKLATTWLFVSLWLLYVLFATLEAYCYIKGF
# Procedure: as §1, §2, §3
# N1-109/133 = molecular target: T4, N1-109/133 (Canis lupus familiaris, UniProt P23685, N157G/T159I/V150L); assay: Na+-dependent 45Ca2+ uptake and efflux on NCX1/NCX3 chimera; conditions: 10 nM; NCX1 region 109-133 (α1) substituted with NCX3 segment
# T4 construct: expressed in transfected cells
# T4 sequence (P23685 33-970 V150L/N157G/T159I): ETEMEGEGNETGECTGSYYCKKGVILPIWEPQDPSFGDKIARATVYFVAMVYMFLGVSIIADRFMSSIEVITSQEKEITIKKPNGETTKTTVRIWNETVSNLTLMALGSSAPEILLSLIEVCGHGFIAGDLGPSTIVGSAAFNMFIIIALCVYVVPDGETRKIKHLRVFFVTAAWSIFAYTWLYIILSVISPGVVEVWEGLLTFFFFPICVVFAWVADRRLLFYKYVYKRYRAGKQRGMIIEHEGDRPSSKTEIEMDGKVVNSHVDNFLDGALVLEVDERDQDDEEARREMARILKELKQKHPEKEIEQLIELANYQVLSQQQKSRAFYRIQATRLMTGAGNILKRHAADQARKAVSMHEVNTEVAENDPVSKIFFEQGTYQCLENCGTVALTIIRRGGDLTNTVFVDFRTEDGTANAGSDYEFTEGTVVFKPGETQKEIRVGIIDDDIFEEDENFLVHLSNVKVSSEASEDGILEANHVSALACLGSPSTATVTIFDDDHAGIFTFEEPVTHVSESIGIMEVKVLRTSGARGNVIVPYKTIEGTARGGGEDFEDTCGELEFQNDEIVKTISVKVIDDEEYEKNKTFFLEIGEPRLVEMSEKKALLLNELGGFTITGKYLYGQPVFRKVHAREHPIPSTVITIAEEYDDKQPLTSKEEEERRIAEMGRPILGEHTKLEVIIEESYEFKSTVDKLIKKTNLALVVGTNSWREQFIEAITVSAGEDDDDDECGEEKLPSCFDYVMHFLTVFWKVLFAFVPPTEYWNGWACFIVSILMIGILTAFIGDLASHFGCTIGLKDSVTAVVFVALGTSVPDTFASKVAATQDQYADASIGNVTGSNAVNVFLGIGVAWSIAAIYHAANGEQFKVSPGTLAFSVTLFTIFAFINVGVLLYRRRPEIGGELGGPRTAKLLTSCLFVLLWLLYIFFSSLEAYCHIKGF
# Source text: (§4) To deeper investigate on the regions and amino acids present on NCX1 responsible for the interaction with neurounina-1 compound, we utilized chimeric and site-mutated proteins. In particular, we generate chimeric proteins with a large sequence of NCX1 and some regions of NCX3 protein. […] By using the chimeric technique it is possible to determine the importance of NCX1 regions by substituting with analogue segments of NCX3 protein. […] Therefore, these two regions result to be involved in the pharmacological modulation of NCX1 from neurounina-1 compound.
# (§5) All experiments aimed to identify the binding site of neurounina-1 were performed on BHK cells stably transfected with a single NCX chimera or mutant.
# (§6) The activity of the Na^+/Ca^2+ exchanger was measured by means of ^45Ca^2+ radiotracer variations in the cytoplasm of cells exposed to a protocol stimulating the forward or the reverse mode of the antiporter. The BHK cells expressing each mutated or non-mutated NCX isoform were cultured in 12-well dishes and incubated in 145 mM NaCl for 10 minutes and then in a medium containing only 145 mM N-Methyl D-glucamine (NMDG) and 10 µM of ^45Ca^2+. This rapid substitution of the medium from a high level of Na^+ to another one without Na^+ allow the ^45Ca^2+ influx (reverse mode). Before the medium substitution cells was incubated with 1 mM ouabain, a Na^+/K^+ pump inhibitor, and 10 µM monensin, a ionophore for extracellular Na^+. After 30 seconds incubation, cells were washed with an ice-cold solution containing 2 mM La^3+ to stop ^45Ca^2+ uptake. The medium was removed and cells were subsequently lysed with 0.1 N NaOH and aliquots were taken to determine radioactivity and protein content.
# (§7) In order to measure NCX activity in the forward mode, cells were firstly loaded with ^45Ca^2+ and subsequently exposed to a chemical protocol to stimulate the efflux of the radiotracer in the extracellular medium. […] After 60 second, cells were lysed with […] NaOH and aliquots were taken to determine cytoplasmatic radioactivity.
# N1-788/829 = molecular target: T5, N1-788/829 (Canis lupus familiaris, UniProt P23685, L840F/Q858V/T855L/V852A); assay: as above; conditions: 10 nM; NCX1 region 788-829 (α2) substituted with NCX3 segment
# T5 construct: expressed in transfected cells
# T5 sequence (P23685 33-970 L840F/V852A/T855L/Q858V): as the sequence (P23685 33-970 V150L/N157G/T159I) above, with L118V, G125N, I127T, L808F, V820A, T823L, Q826V counted along it
# Source text: as §4, §5, §6, §7
# [1] = system: N3-(109/133-788/829) chimera; assay: as above; conditions: 10 nM; NCX3 with α1 and α2 regions of NCX1
# Source text: as §4, §5, §6, §7
# T1 sequence (P23685 33-970): as the sequence (P23685 33-970 V150L/N157G/T159I) above, with L118V, G125N, I127T counted along it
structure (smiles),measurement,setting,value
"O=C1CN=C(c2ccccc2)c2cc([N+](=O)[O-])ccc2N1CN1CCCC1 [neurounina-1, 7-nitro-5-phenyl-1-(pyrrolidin-1-ylmethyl)-1H-benzo[e][1,4]diazepin-2(3H)-one]",increased reverse mode activity of NCX1,NCX1,30%
same,increased reverse mode activity of NCX2,NCX2,40%
same,activity of Na+/Ca2+ exchange in BHK cells expressing NCX3,NCX3,did not show any significant difference
same,pharmacological effect on N1-109/133 chimera,N1-109/133,removed the pharmacological effect
same,pharmacological effect on N1-788/829 chimera,N1-788/829,removed the pharmacological effect
same,activity of N3-(109/133-788/829) chimera,[1],significantly increased activity
